Reference: PubChem BioAssay AID651868 (The Scripps Research Institute Molecular Screening Center, 2012)

Biological target: Protein-arginine deiminase type-1 (Homo sapiens) (UniProt Q9ULC6)
Test: PubChem AID 651868
Conditions: recombinant PAD1, citrulline colorimetric, time-dependent inactivation; stronger effect = higher value

Chain of Protein-arginine deiminase type-1 (Homo sapiens) (Q9ULC6 whole entry, looked up): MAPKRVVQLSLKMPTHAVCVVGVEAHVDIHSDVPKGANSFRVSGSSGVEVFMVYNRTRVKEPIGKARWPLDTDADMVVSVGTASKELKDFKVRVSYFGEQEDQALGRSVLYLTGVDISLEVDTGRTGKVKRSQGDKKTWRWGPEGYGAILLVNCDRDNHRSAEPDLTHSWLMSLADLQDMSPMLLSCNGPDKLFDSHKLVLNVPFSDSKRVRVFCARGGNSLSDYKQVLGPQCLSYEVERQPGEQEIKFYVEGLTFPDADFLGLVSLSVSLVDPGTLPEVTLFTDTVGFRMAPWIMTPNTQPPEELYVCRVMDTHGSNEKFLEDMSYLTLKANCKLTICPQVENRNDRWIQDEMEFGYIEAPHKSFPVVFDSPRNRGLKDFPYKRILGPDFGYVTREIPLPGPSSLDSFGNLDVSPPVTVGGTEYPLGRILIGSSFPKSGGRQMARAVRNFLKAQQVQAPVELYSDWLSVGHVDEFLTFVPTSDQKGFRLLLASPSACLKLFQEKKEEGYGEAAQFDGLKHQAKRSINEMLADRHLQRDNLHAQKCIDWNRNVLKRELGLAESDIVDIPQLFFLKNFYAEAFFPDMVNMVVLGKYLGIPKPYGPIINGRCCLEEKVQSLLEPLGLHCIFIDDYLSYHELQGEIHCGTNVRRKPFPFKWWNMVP

- kinact/KI: 58.3 M⁻¹ s⁻¹
Compound: NC1=CC(=O)c2ccc(-c3cccc(C(=O)O)n3)nc2C1=O
